Measurements from US20190202877A1, “DERMASEPTIN-TYPE AND PISCIDIN-TYPE ANTIMICROBIAL PEPTIDES” (THE REGENTS OF THE UNIVERSITY OF COLORADO, a body corporate, priority 2014, published 2019).
Converted amounts (≈) assume the structure as drawn. Where two headings read alike, the source gives them in different places.

Assays:
human red blood cells = settings: for Fold improvement in HC50: compared to D-Piscidin 1 or D-Dermaseptin S4, 18 hours
Experimental: Peptide samples (concentrations determined by amino acid analysis) were added to 1% human erythrocytes in phosphate-buffered saline (100 mM NaCl, 80 mM Na2HPO4, 20 mM NaH2PO4, pH 7.4) and the reaction mixtures were incubated at 37° C. for 18 h in microtiter plates. Two-fold serial dilutions of the peptide samples were carried out. This determination was made by withdrawing aliquots from the hemolysis assays and removing unlysed erythrocytes by centrifugation (800×g). Hemoglobin release was determined spectrophotometrically at 570 nm. The control for 100% hemolysis was a sample of erythrocytes treated with water or 0.1% Triton-X 100. The control for no release of hemoglobin was a sample of 1% erythrocytes without any peptide added. […] The hemolytic activity was determined as the peptide concentration that caused 50% hemolysis of erythrocytes after 18 h (HC50). HC50 as determined from a plot of percent lysis versus peptide concentration (μM). The inventors also determined the hemolytic activity after 1 hour at 37° C.

[1] = system: methicillin resistant Staph. aureus (MRSA); type: cell-based, Staphylococcus aureus; settings: for MIC: MH medium, 37° C., 24 h; for MIC GM, MRSA: geometric mean of MIC from 8 different isolates of MRSA
Experimental: (§1) MICs were determined by a standard microtiter dilution method in Mueller Hinton (MH) medium. Briefly, cells were grown overnight at 37° C. in MH broth and were diluted in the same medium. Serial dilutions of the peptides were added to the microtiter plates in a volume of 50 μl, followed by the addition of 50 μl of bacteria to give a final inoculum of 5×10^5 colony-forming units (CFU)/mL. The plates were incubated at 37° C. for 24 h, and the MICs were determined as the lowest peptide concentration that inhibited growth.
(§2) Various peptides of the invention were tested for antimicrobial activity as described in Example 1. The antimicrobial activity of these peptides was similarly tested against Gram-positive organisms, including Staphylococcus aureus.

[2] = system: methicillin sensitive Staph. aureus (MSSA); type: cell-based, Staphylococcus aureus; settings: for MIC: MH medium, 37° C., 24 h; for MIC GM, MSSA: geometric mean of MIC from 12 different isolates of MSSA
Experimental: as §1, §2

Compound: CC[C@@H](C)[C@@H](NC(=O)CNC(=O)[C@@H](CCCNC(=N)N)NC(=O)[C@@H](Cc1ccccc1)NC(=O)[C@H](NC(=O)[C@@H](Cc1c[nH]cn1)NC(=O)[C@@H](Cc1c[nH]cn1)NC(=O)[C@@H](Cc1ccccc1)NC(=O)[C@H](N)Cc1ccccc1)[C@H](C)CC)C(=O)N[C@@H](C(=O)N[C@H](Cc1c[nH]cn1)C(=O)N[C@@H](C(=O)NCC(=O)N[C@H](CCCCN)C(=O)N[C@@H](C(=O)N[C@@H](C(=O)N[C@H](Cc1c[nH]cn1)C(=O)N[C@H](CCCNC(=N)N)C(=O)N[C@H](CC(C)C)C(=O)N[C@@H](C(=O)N[C@@H](C(=O)NCC(N)=O)[C@H](C)O)C(C)C)[C@H](C)CC)[C@H](C)O)C(C)C)C(C)C [D-Piscidin 1, reference compound]
- Fold improvement in HC50 (human red blood cells): 1.0 fold
- MIC ([1]; MRSA strain M21742 (nose)): 3.0 µM (≈ 7.71 µg/mL)
- MIC ([1]; MRSA strain M21756 (nose)): 3.0 µM (≈ 7.71 µg/mL)
- MIC ([1]; MRSA strain M22111 (ear)): 3.0 µM (≈ 7.71 µg/mL)
- MIC ([1]; MRSA strain M22130): 3.0 µM (≈ 7.71 µg/mL)
- MIC ([1]; MRSA strain M22224 (leg)): 3.0 µM (≈ 7.71 µg/mL)
- MIC ([1]; MRSA strain M22354): 3.0 µM (≈ 7.71 µg/mL)
- MIC ([1]; MRSA strain M22360 (labia)): 1.5 µM (≈ 3.86 µg/mL)
- MIC ([1]; MRSA strain M22424 (arm)): 3.0 µM (≈ 7.71 µg/mL)
- MIC GM, MRSA [1]: 2.8 µM (≈ 7.2 µg/mL)
- MIC ([2]; MSSA strain BL7429): 3.0 µM (≈ 7.71 µg/mL)
- MIC ([2]; MSSA strain M21913): 3.0 µM (≈ 7.71 µg/mL)
- MIC ([2]; MSSA strain M21935): 3.0 µM (≈ 7.71 µg/mL)
- MIC ([2]; MSSA strain M21991): 6.1 µM (≈ 15.7 µg/mL)
- MIC ([2]; MSSA strain M22075): 3.0 µM (≈ 7.71 µg/mL)
- MIC ([2]; MSSA strain M22097): 6.1 µM (≈ 15.7 µg/mL)
- MIC ([2]; MSSA strain M22111): 1.5 µM (≈ 3.86 µg/mL)
- MIC ([2]; MSSA strain M22274): 3.0 µM (≈ 7.71 µg/mL)
- MIC ([2]; MSSA strain M22287): 3.0 µM (≈ 7.71 µg/mL)
- MIC ([2]; MSSA strain M22300): 3.0 µM (≈ 7.71 µg/mL)
- MIC ([2]; MSSA strain M22312): 6.1 µM (≈ 15.7 µg/mL)
- MIC ([2]; MSSA strain M22315): 3.0 µM (≈ 7.71 µg/mL)
- MIC GM, MSSA [2]: 3.4 µM (≈ 8.74 µg/mL)

Compound: CSCC[C@@H](NC(=O)[C@@H](Cc1c[nH]c2ccccc12)NC(=O)[C@@H](CC(C)C)NC(=O)[C@@H](C)N)C(=O)N[C@@H](C(=O)N[C@H](CC(C)C)C(=O)N[C@H](CC(C)C)C(=O)N[C@H](CCCCN)C(=O)N[C@H](CCCCN)C(=O)N[C@@H](C(=O)N[C@H](CC(C)C)C(=O)N[C@H](CCCCN)C(=O)N[C@H](C)C(=O)N[C@H](C)C(=O)N[C@H](C)C(=O)N[C@H](CCCCN)C(=O)N[C@H](C)C(=O)N[C@H](CC(C)C)C(=O)N[C@H](CC(N)=O)C(=O)N[C@H](C)C(=O)N[C@@H](C(=O)N[C@H](CC(C)C)C(=O)N[C@@H](C(=O)NCC(=O)N[C@H](C)C(=O)N[C@H](CC(N)=O)C(=O)N[C@H](C)C(N)=O)C(C)C)C(C)C)C(C)C)[C@H](C)O [D-Dermaseptin S4, reference compound]
- Fold improvement in HC50 (human red blood cells): 1.0 fold
- MIC ([1]; MRSA strain M21742 (nose)): 5.6 µM (≈ 15.6 µg/mL)
- MIC ([1]; MRSA strain M21756 (nose)): 2.8 µM (≈ 7.78 µg/mL)
- MIC ([1]; MRSA strain M22111 (ear)): 5.6 µM (≈ 15.6 µg/mL)
- MIC ([1]; MRSA strain M22130): 5.6 µM (≈ 15.6 µg/mL)
- MIC ([1]; MRSA strain M22224 (leg)): 5.6 µM (≈ 15.6 µg/mL)
- MIC ([1]; MRSA strain M22354): 5.6 µM (≈ 15.6 µg/mL)
- MIC ([1]; MRSA strain M22360 (labia)): 5.6 µM (≈ 15.6 µg/mL)
- MIC ([1]; MRSA strain M22424 (arm)): 11.3 µM (≈ 31.4 µg/mL)
- MIC GM, MRSA [1]: 5.6 µM (≈ 15.6 µg/mL)
- MIC ([2]; MSSA strain BL7429): 2.8 µM (≈ 7.78 µg/mL)
- MIC ([2]; MSSA strain M21913): 5.6 µM (≈ 15.6 µg/mL)
- MIC ([2]; MSSA strain M21935): 5.6 µM (≈ 15.6 µg/mL)
- MIC ([2]; MSSA strain M21991): 5.6 µM (≈ 15.6 µg/mL)
- MIC ([2]; MSSA strain M22075): 2.8 µM (≈ 7.78 µg/mL)
- MIC ([2]; MSSA strain M22097): 5.6 µM (≈ 15.6 µg/mL)
- MIC ([2]; MSSA strain M22111): 5.6 µM (≈ 15.6 µg/mL)
- MIC ([2]; MSSA strain M22274): 11.3 µM (≈ 31.4 µg/mL)
- MIC ([2]; MSSA strain M22287): 5.6 µM (≈ 15.6 µg/mL)
- MIC ([2]; MSSA strain M22300): 5.6 µM (≈ 15.6 µg/mL)
- MIC ([2]; MSSA strain M22312): 11.3 µM (≈ 31.4 µg/mL)
- MIC ([2]; MSSA strain M22315): 11.3 µM (≈ 31.4 µg/mL)
- MIC GM, MSSA [2]: 6.0 µM (≈ 16.7 µg/mL)

Compound: CC[C@@H](C)[C@@H](NC(=O)[C@@H](Cc1c[nH]cn1)NC(=O)[C@@H](Cc1c[nH]cn1)NC(=O)[C@@H](Cc1ccccc1)NC(=O)[C@H](N)Cc1ccccc1)C(=O)N[C@H](Cc1ccccc1)C(=O)N[C@H](CCCNC(=N)N)C(=O)NCC(=O)N[C@H](CCCCN)C(=O)N[C@@H](C(=O)N[C@H](Cc1c[nH]cn1)C(=O)N[C@@H](C(=O)NCC(=O)N[C@H](CCCCN)C(=O)N[C@@H](C(=O)N[C@@H](C(=O)N[C@H](Cc1c[nH]cn1)C(=O)N[C@H](CCCNC(=N)N)C(=O)N[C@H](CC(C)C)C(=O)N[C@@H](C(=O)N[C@@H](C(=O)NCC(N)=O)[C@H](C)O)C(C)C)[C@H](C)CC)[C@H](C)O)C(C)C)C(C)C [D-Piscidin 1 I9K]
- % hemolysis (human red blood cells; 1000 μg/mL (387 μM) for 1 hour): 32%
- activity against human red blood cells (human red blood cells; 18 hours incubation): inactive
- Fold improvement in HC50 (human red blood cells): 54 fold
- MIC ([1]; MRSA strain M21742 (nose)): 96.7 µM (≈ 250 µg/mL)
- MIC ([1]; MRSA strain M21756 (nose)): 387 µM (≈ 1000 µg/mL)
- MIC ([1]; MRSA strain M22111 (ear)): 96.7 µM (≈ 250 µg/mL)
- MIC ([1]; MRSA strain M22130): 12.1 µM (≈ 31.3 µg/mL)
- MIC ([1]; MRSA strain M22224 (leg)): 96.7 µM (≈ 250 µg/mL)
- MIC ([1]; MRSA strain M22354): 773 µM (≈ 2000 µg/mL)
- MIC ([1]; MRSA strain M22360 (labia)): 3.0 µM (≈ 7.76 µg/mL)
- MIC ([1]; MRSA strain M22424 (arm)): 773 µM (≈ 2000 µg/mL)
- MIC GM, MRSA [1]: 96.7 µM (≈ 250 µg/mL)
- MIC ([2]; MSSA strain BL7429): 193 µM (≈ 499 µg/mL)
- MIC ([2]; MSSA strain M21913): 193 µM (≈ 499 µg/mL)
- MIC ([2]; MSSA strain M21935): 387 µM (≈ 1000 µg/mL)
- MIC ([2]; MSSA strain M21991): 193 µM (≈ 499 µg/mL)
- MIC ([2]; MSSA strain M22075): 387 µM (≈ 1000 µg/mL)
- MIC ([2]; MSSA strain M22097): 193 µM (≈ 499 µg/mL)
- MIC ([2]; MSSA strain M22111): 3.0 µM (≈ 7.76 µg/mL)
- MIC ([2]; MSSA strain M22274): 773 µM (≈ 2000 µg/mL)
- MIC ([2]; MSSA strain M22287): 773 µM (≈ 2000 µg/mL)
- MIC ([2]; MSSA strain M22300): 773 µM (≈ 2000 µg/mL)
- MIC ([2]; MSSA strain M22312): 773 µM (≈ 2000 µg/mL)
- MIC ([2]; MSSA strain M22315): 773 µM (≈ 2000 µg/mL)
- MIC GM, MSSA [2]: 273 µM (≈ 706 µg/mL)
